Experimental data reported in patent publication US20180298405A1, “METHODS AND COMPOSITIONS TO INCREASE HUMAN SOMATIC CELL NUCLEAR TRANSFER (SCNT) EFFICIENCY BY REMOVING HISTONE H3-LYSINE TRIMETHYLATION, AND DERIVATION OF HUMAN NT-ESC” (CHILDREN'S MEDICAL CENTER CORPORATION, priority 2015, published 2018).
“And” between values parts separate entries of the source, which are not always exact repeats. Identical values can stand only once.

Tested on: mouse SCNT embryos
Assay: Preimplantation development of KDM4A-assisted mouse SCNT embryos
Assay type: cell-based
Conditions: cumulus donor cells, mRNA injected at 5-6 hpa; for % blast per 2-cell ± SD: blastocyst stage
Description: B6D2F1/J (BDF1) mice were produced by crossing C57BL/6J females with DBA/2J males, and were used for the collection of both oocyte and somatic nuclear donor for SCNT. All animal experiments were approved by the Institutional Animal Care and Use Committee of Harvard Medical School.
In vitro transcription was performed as described previously (Matoba et al., 2014). Briefly, full length human KDM4A/JHDM3A cDNA was cloned into a pcDNA3.1 plasmid containing poly(A)83 at the 3′ end of cloning site. The catalytic defective mutant form of KDM4A (H188A) was generated using PrimeSTAR mutagenesis kit (TAKARA # R045A). mRNA was synthesized using the mMESSAGE mMACHINE T7 Ultra Kit (Life technologies # AM1345). The synthesized mRNA was dissolved in nuclease-free water. The concentration of mRNA was measured by NanoDrop ND-1000 spectrophotometer (NanoDrop Technologies). Aliquots of mRNA were stored at −80° C. until use.
Mouse somatic cell nuclear transfer was carried out as described previously (Matoba et al., 2014). Briefly, both recipient MII oocytes and donor cumulus cells were collected from adult BDF1 female mice through superovulation by injecting 7.5 IU of pregnant mare serum gonadotropin (PMSG; Millipore #367222) and 7.5 IU of human chorionic gonadotropin (hCG; Millipore #230734). Fifteen to seventeen hours after the hCG injection, cumulus-oocyte complexes (COCs) were collected from the oviducts and treated briefly with Hepes-buffered potassium simplex-optimized medium (KSOM) containing 300 U/ml bovine testicular hyaluronidase (Calbiochem #385931) to obtain dissociated MII oocytes and cumulus cells. Isolated MII oocytes were enucleated in Hepes-buffered KSOM medium containing 7.5 jig/ml of cytochalasin B (Calbiochem #250233) by using Piezo-driven micromanipulator (Primetech # PMM-150FU). The nuclei of donor cumulus cells were injected into the enucleated oocytes. After 1 h incubation in KSOM, reconstructed SCNT oocytes were activated by incubating in Ca-free KSOM containing 2.5 mM SrCl2 and 5 jig/ml cytochalasin B for 1 h, and further cultured in KSOM with cytochalasin B for 4 h. Activated SCNT embryos were washed 5 hrs after the onset of SrCl2 treatment (hours post activation, hpa) and cultured in KSOM in a humidified atmosphere with 5% CO2 at 37.8° C. The SCNT embryos were injected with ˜10 pl of water (control), 1500 ng/μ1 wild-type or mutant (H188A) human KDM4A mRNA at 5-6 hpa by using a Piezo-driven micromanipulator. Preimplantation developmental rates were analyzed by Student's T-test.

KDM4A mRNA: in vitro transcribed mRNA of full length human KDM4A/JHDM3A cDNA, an H3K9me3 demethylase (SEQ ID NO: 1)
% 4-cell per 2-cell ± SD: 43.3 ± 7.6%
% cleaved per 1-cell ± SD: 93.7 ± 2.7%
% morula per 2-cell ± SD: 35.5 ± 13.5%
% blast per 2-cell ± SD: 90.3% and 90%
% blast per 2-cell ± SD (listed as KDM4A): 23.7 ± 11.6%
% blast per 2-cell ± SD (listed as KDM4A WT): 90.3 ± 0.3 %
% 4-cell per 2-cell ± SD (listed as KDM4A WT): 96.8 ± 2.7 %
% cleaved per 1-cell ± SD (listed as KDM4A WT): 97.0 ± 5.2%
% morula per 2-cell ± SD (listed as KDM4A WT): 92.5 ± 3.6 %
